Assay results reported in ChEMBL document CHEMBL2203107, “Microwave-assisted synthesis and in vitro antibacterial activity of novel steroidal thiosemicarbazone derivatives” (Bioorg Med Chem Lett, 2012).
Values after ≈ are worked out from the molar mass of the structure shown.

Experiments:
[1] = tested on: Staphylococcus aureus; assay: Antibacterial activity against Staphylococcus aureus after 18 hrs by macrodilution method; format: functional
[2] = tested on: Bacillus subtilis; assay: Antibacterial activity against Bacillus subtilis after 18 hrs by macrodilution method; format: functional
[3] = tested on: Pseudomonas aeruginosa; assay: Antibacterial activity against Pseudomonas aeruginosa after 18 hrs by macrodilution method; format: functional
[4] = tested on: Staphylococcus aureus; assay: Antibacterial activity against Staphylococcus aureus; format: functional, organism-based

## COC(=O)CC[C@@H](C)[C@H]1CC[C@H]2[C@@H]3CC[C@@H]4C/C(=N/NC(=S)Nc5ccc(Br)cc5)CC[C@]4(C)[C@H]3CC(=O)[C@]12C
[1]
  MIC: > 128 µg/mL
[2]
  MIC: > 128 µg/mL
[3]
  MIC: 2 µg/mL (≈ 3.17 µM)

## COC(=O)CC[C@@H](C)[C@H]1CC[C@H]2[C@@H]3CC[C@@H]4C/C(=N/NC(=S)Nc5ccc(OC)cc5)CC[C@]4(C)[C@H]3CC(=O)[C@]12C
[1]
  MIC: > 128 µg/mL
[2]
  MIC: > 128 µg/mL
[3]
  MIC: 2 µg/mL (≈ 3.44 µM)

## COC(=O)CC[C@@H](C)[C@H]1CC[C@H]2[C@@H]3C(=O)C[C@@H]4C/C(=N/NC(=S)Nc5ccc(OC)cc5)CC[C@]4(C)[C@H]3CC[C@]12C
[1]
  MIC: 128 µg/mL (≈ 220 µM)
[2]
  MIC: 32 µg/mL (≈ 55 µM)
[3]
  MIC: 128 µg/mL (≈ 220 µM)

## COC(=O)CC[C@@H](C)[C@H]1CC[C@H]2[C@@H]3C(=O)C[C@@H]4C/C(=N/NC(=S)Nc5ccc(F)cc5)CC[C@]4(C)[C@H]3CC[C@]12C
[1]
  MIC: 128 µg/mL (≈ 225 µM)
[2]
  MIC: 128 µg/mL (≈ 225 µM)
[3]
  MIC: 128 µg/mL (≈ 225 µM)

## COC(=O)CC[C@@H](C)[C@H]1CC[C@H]2[C@@H]3C(=O)C[C@@H]4C/C(=N/NC(=S)Nc5ccc(C)cc5)CC[C@]4(C)[C@H]3CC[C@]12C
[1]
  MIC: > 128 µg/mL
[2]
  MIC: 32 µg/mL (≈ 56.6 µM)
[3]
  MIC: 16 µg/mL (≈ 28.3 µM)

## COC(=O)CC[C@@H](C)[C@H]1CC[C@H]2[C@@H]3C(=O)C[C@@H]4C/C(=N/NC(=S)Nc5cccc6ccccc56)CC[C@]4(C)[C@H]3CC[C@]12C
[1]
  MIC: > 128 µg/mL
[2]
  MIC: 32 µg/mL (≈ 53.2 µM)
[3]
  MIC: 16 µg/mL (≈ 26.6 µM)

## COC(=O)CC[C@@H](C)[C@H]1CC[C@H]2[C@@H]3CC[C@@H]4C/C(=N/NC(=S)Nc5ccccc5)CC[C@]4(C)[C@H]3CC(=O)[C@]12C
[1]
  MIC: > 128 µg/mL
[2]
  MIC: 64 µg/mL (≈ 116 µM)
[3]
  MIC: 32 µg/mL (≈ 58 µM)

## COC(=O)CC[C@@H](C)[C@H]1CC[C@H]2[C@@H]3CC[C@@H]4C/C(=N/NC(=S)Nc5ccc(F)cc5)CC[C@]4(C)[C@H]3CC(=O)[C@]12C
[1]
  MIC: > 128 µg/mL
[2]
  MIC: > 128 µg/mL
[3]
  MIC: 4 µg/mL (≈ 7.02 µM)

## COC(=O)CC[C@@H](C)[C@H]1CC[C@H]2[C@@H]3C/C(=N/NC(=S)Nc4ccc(OC)cc4)[C@@H]4C/C(=N/NC(=S)Nc5ccc(OC)cc5)CC[C@]4(C)[C@H]3CC[C@]12C
[1]
  MIC: 32 µg/mL (≈ 42 µM)
[2]
  MIC: 128 µg/mL (≈ 168 µM)
[3]
  MIC: 4 µg/mL (≈ 5.26 µM)

## COC(=O)CC[C@@H](C)[C@H]1CC[C@H]2[C@@H]3C/C(=N/NC(=S)Nc4ccc(C)cc4)[C@@H]4C/C(=N/NC(=S)Nc5ccc(C)cc5)CC[C@]4(C)[C@H]3CC[C@]12C
[1]
  MIC: 128 µg/mL (≈ 176 µM)
[2]
  MIC: 128 µg/mL (≈ 176 µM)
[3]
  MIC: 4 µg/mL (≈ 5.49 µM)

## COC(=O)CC[C@@H](C)[C@H]1CC[C@H]2[C@@H]3C/C(=N/NC(=S)Nc4ccc(Br)cc4)[C@@H]4C/C(=N/NC(=S)Nc5ccc(Br)cc5)CC[C@]4(C)[C@H]3CC[C@]12C
[1]
  MIC: 64 µg/mL (≈ 74.5 µM)
[2]
  MIC: 128 µg/mL (≈ 149 µM)
[3]
  MIC: 2 µg/mL (≈ 2.33 µM)

## COC(=O)CC[C@@H](C)[C@H]1CC[C@H]2[C@@H]3C/C(=N/NC(=S)Nc4cccc(F)c4)[C@@H]4C/C(=N/NC(=S)Nc5cccc(F)c5)CC[C@]4(C)[C@H]3CC[C@]12C
[1]
  MIC: 32 µg/mL (≈ 43.4 µM)
[2]
  MIC: 128 µg/mL (≈ 174 µM)
[3]
  MIC: 128 µg/mL (≈ 174 µM)

## COC(=O)CC[C@@H](C)[C@H]1CC[C@H]2[C@@H]3/C(=N/NC(=S)Nc4ccccc4)C[C@@H]4C/C(=N/NC(=S)Nc5ccccc5)CC[C@]4(C)[C@H]3CC[C@]12C
[1]
  MIC: > 128 µg/mL
[2]
  MIC: 128 µg/mL (≈ 183 µM)
[3]
  MIC: 8 µg/mL (≈ 11.4 µM)

## COC(=O)CC[C@@H](C)[C@H]1CC[C@H]2[C@@H]3/C(=N/NC(=S)Nc4ccc(OC)cc4)C[C@@H]4C/C(=N/NC(=S)Nc5ccc(OC)cc5)CC[C@]4(C)[C@H]3CC[C@]12C
[4]
  IC50: 3.25 µg/mL (≈ 4.27 µM)
[1]
  MIC: 64 µg/mL (≈ 84.1 µM)
[2]
  MIC: > 128 µg/mL
[3]
  MIC: 4 µg/mL (≈ 5.26 µM)

## COC(=O)CC[C@@H](C)[C@H]1CC[C@H]2[C@@H]3/C(=N/NC(=S)Nc4ccc(Br)cc4)C[C@@H]4C/C(=N/NC(=S)Nc5ccc(Br)cc5)CC[C@]4(C)[C@H]3CC[C@]12C
[4]
  IC50: 2.85 µg/mL (≈ 3.32 µM)
[1]
  MIC: 32 µg/mL (≈ 37.3 µM)
[2]
  MIC: > 128 µg/mL
[3]
  MIC: 16 µg/mL (≈ 18.6 µM)

## COC(=O)CC[C@@H](C)[C@H]1CC[C@H]2[C@@H]3/C(=N/NC(=S)Nc4cccc(F)c4)C[C@@H]4C/C(=N/NC(=S)Nc5cccc(F)c5)CC[C@]4(C)[C@H]3CC[C@]12C
[4]
  IC50: 1.02 µg/mL (≈ 1.38 µM)
[1]
  MIC: 8 µg/mL (≈ 10.9 µM)
[2]
  MIC: 8 µg/mL (≈ 10.9 µM)
[3]
  MIC: 32 µg/mL (≈ 43.4 µM)

## CC1(C)S[C@@H]2[C@H](NC(=O)[C@H](N)c3ccc(O)cc3)C(=O)N2[C@H]1C(=O)O [AMOXICILLIN]
[4]
  IC50: 2.84 µg/mL (≈ 7.77 µM)
[1]
  MIC: 32 µg/mL (≈ 87.6 µM)
[2]
  MIC: 16 µg/mL (≈ 43.8 µM)
[3]
  MIC: 2 µg/mL (≈ 5.47 µM)
